Assay results from ChEMBL document CHEMBL5244202, “Structural evolution of toll-like receptor 7/8 agonists from imidazoquinolines to imidazoles” (RSC Med Chem, 2021).
Each block holds one compound with its values, some of them ahead of it.

Assays:
[1] = target: T1, Toll-like receptor 7 (Homo sapiens, UniProt Q9NYK1); assay: Agonist activity at human TLR7 in HEK-Blue hTLR7 cells assessed as activation of NFkappaB by SEAP reporter gene based spectrophotometry assay; assay type: cell-based; details: hek-blue htlr7
T1 sequence (Q9NYK1 whole entry): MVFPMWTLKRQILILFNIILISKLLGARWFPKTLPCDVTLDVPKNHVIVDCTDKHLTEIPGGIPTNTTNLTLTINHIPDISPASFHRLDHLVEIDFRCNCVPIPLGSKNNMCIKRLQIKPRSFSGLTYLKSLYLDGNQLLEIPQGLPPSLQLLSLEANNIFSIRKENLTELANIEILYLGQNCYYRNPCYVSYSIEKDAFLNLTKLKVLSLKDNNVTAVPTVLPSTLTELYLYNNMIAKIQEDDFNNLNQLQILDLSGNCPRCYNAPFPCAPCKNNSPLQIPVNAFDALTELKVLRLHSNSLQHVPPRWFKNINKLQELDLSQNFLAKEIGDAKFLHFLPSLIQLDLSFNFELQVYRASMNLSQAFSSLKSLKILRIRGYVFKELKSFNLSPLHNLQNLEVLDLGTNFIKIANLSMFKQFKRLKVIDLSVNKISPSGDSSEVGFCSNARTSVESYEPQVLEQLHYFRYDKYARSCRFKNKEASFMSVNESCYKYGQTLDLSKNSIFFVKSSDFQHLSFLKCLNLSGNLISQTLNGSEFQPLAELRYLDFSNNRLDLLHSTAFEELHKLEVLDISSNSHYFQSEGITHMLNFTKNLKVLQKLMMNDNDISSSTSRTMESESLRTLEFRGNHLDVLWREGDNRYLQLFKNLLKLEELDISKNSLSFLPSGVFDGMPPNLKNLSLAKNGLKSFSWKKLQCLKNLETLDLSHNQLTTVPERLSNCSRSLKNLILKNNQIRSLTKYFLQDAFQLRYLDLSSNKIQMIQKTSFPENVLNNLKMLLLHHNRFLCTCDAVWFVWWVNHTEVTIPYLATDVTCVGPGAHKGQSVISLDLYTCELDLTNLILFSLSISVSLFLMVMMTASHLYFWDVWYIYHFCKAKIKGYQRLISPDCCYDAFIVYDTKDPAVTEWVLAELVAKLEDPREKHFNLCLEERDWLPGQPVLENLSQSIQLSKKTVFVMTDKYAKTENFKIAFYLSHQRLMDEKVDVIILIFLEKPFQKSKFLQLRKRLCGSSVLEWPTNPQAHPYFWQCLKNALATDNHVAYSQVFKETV

[2] = target: T2, Toll-like receptor 8 (Homo sapiens, UniProt Q9NR97); assay: Agonist activity at human TLR8 in HEK-Blue hTLR8 cells assessed as activation of NFkappaB by SEAP reporter gene based spectrophotometry assay; assay type: cell-based; details: hek-blue htlr8
T2 sequence (Q9NR97 whole entry): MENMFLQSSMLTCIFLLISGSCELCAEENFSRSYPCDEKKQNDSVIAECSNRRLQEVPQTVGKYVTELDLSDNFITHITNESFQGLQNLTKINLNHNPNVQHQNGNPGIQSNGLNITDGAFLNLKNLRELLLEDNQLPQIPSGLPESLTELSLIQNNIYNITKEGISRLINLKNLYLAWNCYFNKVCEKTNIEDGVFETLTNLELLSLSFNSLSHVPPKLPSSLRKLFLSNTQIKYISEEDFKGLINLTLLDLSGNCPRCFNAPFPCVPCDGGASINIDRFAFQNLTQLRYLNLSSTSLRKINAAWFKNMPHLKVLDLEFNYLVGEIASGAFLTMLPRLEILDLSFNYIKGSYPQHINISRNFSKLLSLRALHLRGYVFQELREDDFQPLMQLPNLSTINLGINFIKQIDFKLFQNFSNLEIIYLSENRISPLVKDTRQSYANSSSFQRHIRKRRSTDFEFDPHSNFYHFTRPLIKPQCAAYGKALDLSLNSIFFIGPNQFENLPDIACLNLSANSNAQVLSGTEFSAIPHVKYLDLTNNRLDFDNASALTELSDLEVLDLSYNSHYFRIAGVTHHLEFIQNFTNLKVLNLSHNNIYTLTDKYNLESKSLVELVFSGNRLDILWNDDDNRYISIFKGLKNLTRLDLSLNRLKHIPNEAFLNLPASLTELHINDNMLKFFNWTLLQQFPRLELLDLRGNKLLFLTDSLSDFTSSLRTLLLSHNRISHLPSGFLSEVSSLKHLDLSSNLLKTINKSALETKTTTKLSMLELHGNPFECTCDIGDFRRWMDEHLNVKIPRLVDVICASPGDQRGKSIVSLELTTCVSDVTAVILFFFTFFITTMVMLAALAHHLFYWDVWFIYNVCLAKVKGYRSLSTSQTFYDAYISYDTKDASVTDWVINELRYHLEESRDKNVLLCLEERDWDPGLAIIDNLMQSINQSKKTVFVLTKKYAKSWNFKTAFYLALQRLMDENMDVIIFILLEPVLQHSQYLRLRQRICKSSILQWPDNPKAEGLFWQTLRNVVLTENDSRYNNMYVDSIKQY

[3] = Induction of IFN production in C3H/HeJ mouse splenocytes incubated for 18 hrs; assay type: functional; details: Splenocyte, read-out: MEC
[4] = target: T2, Toll-like receptor 8; assay: (§1) Agonist activity at TLR8 (unknown origin)
[5] = target: T1, Toll-like receptor 7; assay: Agonist activity at recombinant human TLR7 transfected in HEK293 cells assessed as induction of SEAP production incubated overnight by SEAP reporter gene based assay; assay type: cell-based
[6] = target: T2, Toll-like receptor 8; assay: Agonist activity at human TLR8 transfected in HEK293 cells assessed as induction of SEAP production incubated overnight; assay type: cell-based
[7] = target: T1, Toll-like receptor 7; assay: (§2) Agonist activity at TLR7 (unknown origin)
[8] = target: T3, Toll-like receptor 7 (Homo sapiens) (UniProt Q9NYK1); assay: as §2; details: filed as agonist
T3 sequence (whole entry): T1 sequence (Q9NYK1 whole entry)

[9] = target: T4, Toll-like receptor 8 (Homo sapiens) (UniProt Q9NR97); assay: as §1
T4 sequence (whole entry): T2 sequence (Q9NR97 whole entry)

[10] = target: T1, Toll-like receptor 7; assay: Agonist activity at human TLR7 transfected in HEK293 cells assessed as induction of SEAP production incubated overnight by SEAP reporter gene based assay; assay type: cell-based
[11] = target: T2, Toll-like receptor 8; assay: Agonist activity at human TLR8 in HEK-Blue hTLR8 cells assessed as induction of SEAP production using nitrophenyl phosphate as substrate incubated for 20 hrs by microplate reader analysis; assay type: cell-based
[12] = target: T2, Toll-like receptor 8; assay: Agonist activity at human TLR8 (27 to 287 residues) in HEK-Blue hTLR8 cells assessed as induction of NFkappaB by SEAP reporter gene based spectrophotometry assay; assay type: cell-based
[13] = species on record: Homo sapiens; assay: Selectivity index, ratio of EC50 for agonist activity at TLR8 (unknown origin) to EC50 for agonist activity at TLR7 (unknown origin)

EC50 [1]: 4140 nM
EC50 [2]: 1940 nM
SMILES: CCCCCc1nc2c(N)nc3ccccc3c2s1

EC50 [4]: 640 nM
SMILES: CCCCNc1nc(N)nnc1OCc1ccccc1OC

EC50 [5]: 55 nM
EC50 [6]: > 10000 nM
SMILES: CCC[C@@H](CCO)Nc1nc(N)nc(C)c1Cc1ccc(CN(C)CC(N)=O)cc1OC

EC50 [7]: 170 nM
SMILES: CCCCNc1nc(N)nnc1OCc1ccccn1

EC50 [5]: 44.7 nM
EC50 [6]: > 10000 nM
SMILES: CCC[C@@H](CCO)Nc1nc(N)nc(C)c1Cc1ccc(CNCC(N)=O)cc1OC

EC50 [5]: 81.3 nM
EC50 [6]: > 10000 nM
SMILES: CCC[C@@H](CCO)Nc1nc(N)nc(C)c1Cc1ccc(CNCCC(N)=O)cc1OC

EC50 [7]: 2940 nM
SMILES: CCCCNc1nc(N)nnc1OCCCc1ccccc1

EC50 [12]: 100000 nM
SMILES: CC(C)Oc1cc2ccccc2nc1N

EC50 [1]: 6960 nM
EC50 [2]: 1550 nM
SMILES: CC(C)Cc1nc2c(N)nc3ccccc3c2s1

EC50 [1]: 490 nM
EC50 [2]: 420 nM
SMILES: CCCCc1nc2c(NC(=O)CCC)nc3ccccc3c2s1

EC50 [7]: 750 nM
SMILES: CCCCNc1nc(N)nnc1OCc1ccccc1F

EC50 [11]: 2510 nM
EC50 [5]: < 5.01 nM
SMILES: CCC[C@@H](CCO)Nc1nc(N)nc(C)c1Cc1ccc(CN(C)CCO)cc1OC

EC50 [1]: 3630 nM
EC50 [2]: 1610 nM
SMILES: Nc1nc2ccccc2c2sc(CCC(F)(F)F)nc12

Second part, the compound before the results:

SMILES: CCCCc1nc(N)c2nc(O)n(Cc3ccccc3)c2n1
minimal effective concentration [3]: 0.03 µM

SMILES: CCC[C@@H](CCO)Nc1nc(N)nc(C)c1Cc1ccc(CNC2CNC2)cc1OC
EC50 [5]: 19.5 nM
EC50 [6]: > 10000 nM

SMILES: COc1cc2cc(c1)O/C=C\CCOc1nc(N)c3nc(O)n(c3n1)C2
MEC [8]: 0.18 µM
MEC [9]: > 25 µM

SMILES: COCCc1nc2c(N)nc3ccccc3c2n1CCCCN(CCCN1CCOCC1)Cc1cccc(OCC(=O)OC(C)(C)C)c1
EC50 [10]: 114 nM

SMILES: CCCCNc1nc(N)nnc1OCCCN(C)C
EC50 [7]: > 25000 nM
EC50 [4]: 100 nM

SMILES: CCCCNc1nc(N)nnc1OC
EC50 [7]: 17500 nM

SMILES: CCC[C@@H](CO)Nc1nc(N)nc(C)c1Cc1ccc(CN2CCCC2)cc1OC
EC50 [11]: 63.1 nM
EC50 [5]: < 5.89 nM

SMILES: COc1cc2ccccc2nc1N
EC50 [12]: 100000 nM

SMILES: CCCCNc1nc(N)nnc1OCCOC
EC50 [7]: 4750 nM
EC50 [4]: 1000 nM

SMILES: CCOC(=O)C1=Cc2ccc(-c3cccc(C#N)c3)cc2N=C(N)C1
EC50 [7]: 30 nM
Ratio EC50 [13]: 500
EC50 [4]: 15000 nM

SMILES: CCC[C@@H](CO)Nc1nc(N)nc(C)c1Cc1ccc(CN2CCNCC2)cc1OC
EC50 [5]: 63.1 nM
EC50 [6]: 5250 nM

SMILES: CCC[C@@H](CO)Nc1nc(N)nc(C)c1Cc1ccc(CNC2CN(C)C2)cc1OC
EC50 [5]: 155 nM
EC50 [6]: 6170 nM

SMILES: CCCC[C@H](CCO)Nc1nc(N)nnc1OC
EC50 [7]: 7800 nM
